# Experimental data: patent publication US11365188B2, “JAK inhibitors” (priority 2018, dated 2022)
# Assays:
# Type in all cases: biochemical
# JAK3 = biological target: T1, JAK3 (Homo sapiens, UniProt P52333); test: JAK3 Assay (Caliper EZ Reader, fluoresceinated peptide); conditions: ATP 3.5 μM; JAK3 0.5 nM; 30 minutes at room temperature; read-out: JAK3 inhibition
# T1 sequence (P52333 1-1124): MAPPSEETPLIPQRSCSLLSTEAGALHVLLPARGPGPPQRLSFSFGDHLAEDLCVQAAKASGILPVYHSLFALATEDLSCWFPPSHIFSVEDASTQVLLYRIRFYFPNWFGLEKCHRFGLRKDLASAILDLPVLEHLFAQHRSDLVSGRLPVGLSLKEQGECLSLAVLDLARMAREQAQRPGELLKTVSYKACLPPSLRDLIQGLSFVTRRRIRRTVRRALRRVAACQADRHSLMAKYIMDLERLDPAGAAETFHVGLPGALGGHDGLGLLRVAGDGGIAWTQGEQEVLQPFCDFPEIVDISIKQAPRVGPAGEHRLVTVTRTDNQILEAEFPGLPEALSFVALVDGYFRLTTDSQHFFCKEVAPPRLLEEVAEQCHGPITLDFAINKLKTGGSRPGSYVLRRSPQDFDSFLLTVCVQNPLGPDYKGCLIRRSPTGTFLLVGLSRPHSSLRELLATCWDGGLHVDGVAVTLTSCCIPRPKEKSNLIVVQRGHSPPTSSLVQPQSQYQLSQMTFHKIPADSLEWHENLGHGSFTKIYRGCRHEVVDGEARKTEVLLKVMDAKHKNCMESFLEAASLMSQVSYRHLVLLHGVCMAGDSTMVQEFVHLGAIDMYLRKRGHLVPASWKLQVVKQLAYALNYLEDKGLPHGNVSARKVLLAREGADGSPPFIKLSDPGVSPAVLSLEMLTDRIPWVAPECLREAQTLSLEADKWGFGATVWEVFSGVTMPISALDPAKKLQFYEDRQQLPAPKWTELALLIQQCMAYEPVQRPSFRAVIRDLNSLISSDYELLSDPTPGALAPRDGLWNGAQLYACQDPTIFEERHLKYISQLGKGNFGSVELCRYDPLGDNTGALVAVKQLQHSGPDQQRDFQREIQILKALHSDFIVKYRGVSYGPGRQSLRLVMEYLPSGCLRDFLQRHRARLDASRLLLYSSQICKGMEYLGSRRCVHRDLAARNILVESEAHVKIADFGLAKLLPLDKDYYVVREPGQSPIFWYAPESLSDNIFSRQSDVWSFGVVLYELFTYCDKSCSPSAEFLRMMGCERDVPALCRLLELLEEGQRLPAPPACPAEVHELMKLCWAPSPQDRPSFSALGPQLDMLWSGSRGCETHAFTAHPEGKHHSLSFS
# JAK2 = JAK2 (Homo sapiens, UniProt O60674); test: JAK2 Assay (Caliper EZ Reader, fluoresceinated peptide); conditions: ATP 11.4 μM; JAK2 0.25 nM; 15 minutes at room temperature; read-out: JAK2 inhibition
# JAK1 = JAK1 (Homo sapiens, UniProt P23458); test: JAK Kinase Assay (JAK1, Caliper EZ Reader, fluoresceinated peptide); conditions: ATP 76.5 μM; JAK1 10 nM; 120 minutes at room temperature; read-out: JAK1 inhibition
# Chain of JAK1 (P23458 whole entry, species assumed): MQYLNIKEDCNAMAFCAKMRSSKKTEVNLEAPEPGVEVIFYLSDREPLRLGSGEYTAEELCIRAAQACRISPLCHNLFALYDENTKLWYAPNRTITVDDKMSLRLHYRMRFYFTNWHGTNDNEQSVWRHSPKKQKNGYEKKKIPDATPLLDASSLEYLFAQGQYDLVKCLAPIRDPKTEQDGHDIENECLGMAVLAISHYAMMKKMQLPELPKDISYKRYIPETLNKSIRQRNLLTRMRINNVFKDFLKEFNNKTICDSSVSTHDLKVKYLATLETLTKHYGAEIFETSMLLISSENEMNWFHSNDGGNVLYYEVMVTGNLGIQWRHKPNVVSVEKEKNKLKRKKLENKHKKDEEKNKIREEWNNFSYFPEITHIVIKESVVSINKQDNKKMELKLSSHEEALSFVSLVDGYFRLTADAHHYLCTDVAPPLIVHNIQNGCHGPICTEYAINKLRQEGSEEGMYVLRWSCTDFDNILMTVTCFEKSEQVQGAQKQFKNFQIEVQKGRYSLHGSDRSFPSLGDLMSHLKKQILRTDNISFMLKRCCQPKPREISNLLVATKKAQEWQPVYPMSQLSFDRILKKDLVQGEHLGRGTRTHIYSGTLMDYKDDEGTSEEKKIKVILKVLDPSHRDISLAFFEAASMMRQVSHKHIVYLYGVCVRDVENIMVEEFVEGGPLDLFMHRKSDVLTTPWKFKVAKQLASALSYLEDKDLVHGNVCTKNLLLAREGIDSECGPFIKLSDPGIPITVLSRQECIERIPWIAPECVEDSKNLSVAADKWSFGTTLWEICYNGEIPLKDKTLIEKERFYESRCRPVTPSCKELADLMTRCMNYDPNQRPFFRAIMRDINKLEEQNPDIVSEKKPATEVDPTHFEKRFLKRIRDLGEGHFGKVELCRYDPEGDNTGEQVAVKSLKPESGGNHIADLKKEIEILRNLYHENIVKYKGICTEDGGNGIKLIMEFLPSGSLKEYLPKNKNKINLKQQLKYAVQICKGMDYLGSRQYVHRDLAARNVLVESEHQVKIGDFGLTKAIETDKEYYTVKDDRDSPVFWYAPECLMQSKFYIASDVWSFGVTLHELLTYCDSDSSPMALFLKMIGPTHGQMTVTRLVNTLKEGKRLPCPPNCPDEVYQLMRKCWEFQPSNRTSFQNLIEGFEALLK
# Chain of JAK2 (O60674 whole entry, species assumed): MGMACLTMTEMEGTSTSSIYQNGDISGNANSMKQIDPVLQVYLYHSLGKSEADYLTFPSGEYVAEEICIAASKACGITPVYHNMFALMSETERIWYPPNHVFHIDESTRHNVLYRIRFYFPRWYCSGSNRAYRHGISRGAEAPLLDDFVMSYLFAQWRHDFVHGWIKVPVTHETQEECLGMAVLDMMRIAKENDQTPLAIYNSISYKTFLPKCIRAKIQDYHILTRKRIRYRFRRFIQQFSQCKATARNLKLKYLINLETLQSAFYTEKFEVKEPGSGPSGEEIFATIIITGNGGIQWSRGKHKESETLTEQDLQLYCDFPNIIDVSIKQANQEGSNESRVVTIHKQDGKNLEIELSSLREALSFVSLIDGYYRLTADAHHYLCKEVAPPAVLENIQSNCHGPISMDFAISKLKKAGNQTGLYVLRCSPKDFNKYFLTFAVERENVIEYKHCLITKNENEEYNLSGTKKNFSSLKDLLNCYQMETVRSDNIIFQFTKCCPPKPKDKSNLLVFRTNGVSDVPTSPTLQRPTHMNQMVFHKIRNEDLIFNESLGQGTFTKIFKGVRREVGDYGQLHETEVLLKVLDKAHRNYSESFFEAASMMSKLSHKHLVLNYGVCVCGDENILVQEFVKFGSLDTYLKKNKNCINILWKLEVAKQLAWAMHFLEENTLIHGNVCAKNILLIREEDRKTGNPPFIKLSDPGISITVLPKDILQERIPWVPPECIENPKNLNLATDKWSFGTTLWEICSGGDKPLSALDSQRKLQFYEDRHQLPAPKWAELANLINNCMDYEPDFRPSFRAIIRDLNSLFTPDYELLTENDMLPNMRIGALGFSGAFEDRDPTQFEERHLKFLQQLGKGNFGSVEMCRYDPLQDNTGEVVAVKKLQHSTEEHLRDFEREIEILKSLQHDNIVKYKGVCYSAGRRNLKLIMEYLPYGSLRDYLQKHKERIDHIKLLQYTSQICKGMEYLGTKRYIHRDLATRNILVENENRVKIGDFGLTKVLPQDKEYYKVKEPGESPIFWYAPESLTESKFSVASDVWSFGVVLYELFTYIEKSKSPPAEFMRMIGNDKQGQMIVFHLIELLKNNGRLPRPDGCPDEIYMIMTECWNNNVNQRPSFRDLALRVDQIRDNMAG
SMILES,IC50 (JAK3) [nM],IC50 (JAK2) [nM],IC50 (JAK1) [nM]
"CN(c1ncnc2[nH]ccc12)C1CC2(C1)CN(C(=O)c1cc[nH]n1)C2 [Compound 45, (6-(methyl(7H-pyrrolo[2,3-d]pyrimidin-4-yl)amino)-2-azaspiro[3.3]heptan-2-yl)(1H-pyrazol-3-yl)methanone]",≥ 10000,1000 to 10000,1000 to 10000
"CN(c1ncnc2[nH]ccc12)C1CCC2(CC1)CCN(C(=O)C1CCC(=O)CC1)CC2 [Compound 82, 4-{9-[Methyl-(7H-pyrrolo[2,3-d]pyrimidin-4-yl)-amino]-3-aza-spiro[5.5]undecane-3-carbonyl}-cyclohexanone]",1000 to 10000,1000 to 10000,100 to 1000
"CN(c1ncnc2[nH]ccc12)C1CCC2(CC1)CCN(C(=O)CCS(C)(=O)=O)CC2 [Compound 86, 3-Methanesulfonyl-1-{9-[methyl-(7H-pyrrolo[2,3-d]pyrimidin-4-yl)-amino]-3-aza-spiro[5.5]undec-3-yl}-propan-1-one]",1000 to 10000,100 to 1000,100 to 1000
"CC(=O)N1CC2(CC(N(C)c3ncnc4[nH]ccc34)C2)C1 [Compound 4, 1-(6-(methyl(7H-pyrrolo[2,3-d]pyrimidin-4-yl)amino)-2-azaspiro[3.3]heptan-2-yl)ethanone]",≥ 10000,100 to 1000,100 to 1000
"CN(c1ncnc2[nH]ccc12)C1CCC2(CC1)CCN(C(=O)c1cccc(OC(F)(F)F)c1)CC2 [Compound 101, {9-[Methyl-(7H-pyrrolo[2,3-d]pyrimidin-4-yl)-amino]-3-aza-spiro[5.5]undec-3-yl}-(3-trifluoromethoxy-phenyl)-methanone]",1000 to 10000,100 to 1000,100 to 1000
"CN(c1ncnc2[nH]ccc12)C1CC2(C1)CN(C(=O)c1cccnc1)C2 [Compound 9, (6-(methyl(7H-pyrrolo[2,3-d]pyrimidin-4-yl)amino)-2-azaspiro[3.3]heptan-2-yl)(pyridin-3-yl)methanone]",1000 to 10000,100 to 1000,10 to 100
"CN(c1ncnc2[nH]ccc12)C1CCC2(CC1)CCN(C(=O)c1ccc(C#N)cc1F)CC2 [Compound 84, 3-Fluoro-4-{9-[methyl-(7H-pyrrolo[2,3-d]pyrimidin-4-yl)-amino]-3-aza-spiro[5.5]undecane-3-carbonyl}-benzonitrile]",1000 to 10000,100 to 1000,100 to 1000
"CN(c1ncnc2[nH]ccc12)C1CC2(C1)CN(C(=O)c1ccc3c(c1)ncn3C)C2 [Compound 49, (6-(methyl(7H-pyrrolo[2,3-d]pyrimidin-4-yl)amino)-2-azaspiro[3.3]heptan-2-yl)(1-methyl-1H-benzo[d]imidazol-5-yl)methanone]",≥ 10000,1000 to 10000,1000 to 10000
"CC(C)OC(=O)N1CCC2(CCC(N(C)c3ncnc4c3CCN4)CC2)CC1 [Compound 98, 9-[(6,7-Dihydro-5H-pyrrolo[2,3-d]pyrimidin-4-yl)-methyl-amino]-3-aza-spiro[5.5]undecane-3-carboxylic acid isopropyl ester]",1000 to 10000,100 to 1000,10 to 100
"Cc1cc(C(=O)N2CC3(CC(N(C)c4ncnc5[nH]ccc45)C3)C2)ccc1C#N [Compound 34, 2-methyl-4-(6-(methyl(7H-pyrrolo[2,3-d]pyrimidin-4-yl)amino)-2-azaspiro[3.3]heptane-2-carbonyl)benzonitrile]",1000 to 10000,1000 to 10000,10 to 100
"CN(c1ncnc2[nH]ccc12)C1CCC2(CC1)CCN(C(=O)c1cnccn1)CC2 [Compound 88, {9-[Methyl-(7H-pyrrolo[2,3-d]pyrimidin-4-yl)-amino]-3-aza-spiro[5.5]undec-3-yl}-pyrazin-2-yl-methanone]",1000 to 10000,100 to 1000,100 to 1000
"CN(c1ncnc2[nH]ccc12)C1CCC2(CC1)CCN(C(=O)c1cccnc1)CC2 [Compound 80, {9-[Methyl-(7H-pyrrolo[2,3-d]pyrimidin-4-yl)-amino]-3-aza-spiro[5.5]undec-3-yl}-pyridin-3-yl-methanone]",100 to 1000,100 to 1000,100 to 1000
"CN(c1ncnc2[nH]ccc12)C1CCC2(CC1)CCN(C(=O)c1cccc(C#N)c1)CC2 [Compound 102, 3-{9-[Methyl-(7H-pyrrolo[2,3-d]pyrimidin-4-yl)-amino]-3-aza-spiro[5.5]undecane-3-carbonyl}-benzonitrile]",100 to 1000,100 to 1000,100 to 1000
"C#Cc1ccc(C(=O)N2CC3(CC(N(C)c4ncnc5[nH]ccc45)C3)C2)nc1 [Compound 48, (5-ethynylpyridin-2-yl)(6-(methyl(7H-pyrrolo[2,3-d]pyrimidin-4-yl)amino)-2-azaspiro[3.3]heptan-2-yl)methanon]",1000 to 10000,1000 to 10000,10 to 100
"CN(c1ncnc2[nH]ccc12)C1CC2(C1)CN(C(=O)CCC#N)C2 [Compound 10, 4-(6-(methyl(7H-pyrrolo[2,3-d]pyrimidin-4-yl)amino)-2-azaspiro[3.3]heptan-2-yl)-4-oxobutanenitrile]",1000 to 10000,100 to 1000,10 to 100
"CN(c1ncnc2[nH]ccc12)C1CC2(C1)CN(C(=O)CO)C2 [Compound 3, 2-hydroxy-1-(6-(methyl(7H-pyrrolo[2,3-d]pyrimidin-4-yl)amino)-2-azaspiro[3.3]heptan-2-yl)ethanone]",1000 to 10000,100 to 1000,100 to 1000

# The next lines start with the values.
IC50 (JAK3) [nM],IC50 (JAK2) [nM],IC50 (JAK1) [nM],SMILES
100 to 1000,100 to 1000,100 to 1000,"CN(c1ncnc2[nH]ccc12)C1CCC2(CC1)CCN(C(=O)CCC#N)CC2 [Compound 81, 4-{9-[Methyl-(7H-pyrrolo[2,3-d]pyrimidin-4-yl)-amino]-3-aza-spiro[5.5]undec-3-yl}-4-oxo-butyronitrile]"
1000 to 10000,100 to 1000,10 to 100,"CN(c1ncnc2[nH]ccc12)C1CC2(C1)CN(C(=O)c1ccc(C3CC3)cc1)C2 [Compound 39, (4-cyclopropylphenyl)(6-(methyl(7H-pyrrolo[2,3-d]pyrimidin-4-yl)amino)-2-azaspiro[3.3]heptan-2-yl)methanone]"
100 to 1000,10 to 100,10 to 100,"CN(c1ncnc2[nH]ccc12)C1CCC2(CC1)CCN(C(=O)CO)CC2 [Compound 77, 2-Hydroxy-1-{9-[methyl-(7H-pyrrolo[2,3-d]pyrimidin-4-yl)-amino]-3-aza-spiro[5.5]undec-3-yl}-ethanone]"
1000 to 10000,100 to 1000,100 to 1000,"CCC(=O)N1CC2(CC(N(C)c3ncnc4[nH]ccc34)C2)C1 [Compound 5, 1-(6-(methyl(7H-pyrrolo[2,3-d]pyrimidin-4-yl)amino)-2-azaspiro[3.3]heptan-2-yl)propan-1-one]"
1000 to 10000,1000 to 10000,10 to 100,"CN(c1ncnc2[nH]ccc12)C1CC2(C1)CN(C(=O)c1ccc(C#N)c(Cl)c1)C2 [Compound 36, 2-chloro-4-(6-(methyl(7H-pyrrolo[2,3-d]pyrimidin-4-yl)amino)-2-azaspiro[3.3]heptane-2-carbonyl)benzonitrile]"
1000 to 10000,100 to 1000,100 to 1000,"CCC(=O)N1CCC2(CCC(N(C)c3ncnc4[nH]ccc34)CC2)CC1 [Compound 78, 1-{9-[Methyl-(7H-pyrrolo[2,3-d]pyrimidin-4-yl)-amino]-3-aza-spiro[5.5]undec-3-yl}-propan-1-one]"
1000 to 10000,1000 to 10000,100 to 1000,"CN(c1ncnc2[nH]ccc12)C1CC2(C1)CN(C(=O)Cc1ccc(C#N)cc1)C2 [Compound 15, 4-(2-(6-(methyl(7H-pyrrolo[2,3-d]pyrimidin-4-yl)amino)-2-azaspiro[3.3]heptan-2-yl)-2-oxoethyl)benzonitrile]"
≥ 10000,1000 to 10000,100 to 1000,"Cc1cc(C#N)ccc1C(=O)N1CC2(CC(N(C)c3ncnc4[nH]ccc34)C2)C1 [Compound 44, 3-methyl-4-(6-(methyl(7H-pyrrolo[2,3-d]pyrimidin-4-yl)amino)-2-azaspiro[3.3]heptane-2-carbonyl)benzonitrile]"
